The text below walks through data of paper PMC4809498, “Artonin E Induces Apoptosis via Mitochondrial Dysregulation in SKOV-3 Ovarian Cancer Cells” (PLoS ONE, 2016).

The test system of one data set is caspase-9. Description: Colorimetric caspase-9 activation assay. Format: cell-based, human. As to conditions: SKOV-3, 8 μg/mL, from 24 h, prolonged exposure. The protocol:
Calorimetric assay of the activation of caspases-3, -8, and -9 was conducted using R & D system kit, USA. Briefly, in a T75cm^2 flask 90% confluent SKOV-3 cells were induced with artonin E for 24, 48, and 72 h. The induced cells were trypsinized and centrifuged at 1,800 rpm for 10 min. The fresh pellets were washed with cold PBS and immediately lysed with protein lysis buffer. The cell lysate was then kept on ice for 10 min, centrifuged at 10,000 g for 15 min, and transferred into a new tube. The fresh cell lysate (50 μL), which contained 100–200 μg of protein, was added into a 96-well plate in triplicate. Fifty microliters of reaction buffer and 5 μL of caspase were then transferred into each designated well before incubating the plate in a CO2 incubator at 37°C for 2 h. A microplate reader (Tecan Infinite M 200 PRO, Männedorf, Switzerland) was used for analysis at a wavelength of 405 nm.

Data set [1] concerns SKOV-3 cells. Description: Intracellular ROS generation (DCFH-DA). Format: cell-based, human. The conditions noted are these: SKOV-3, 8 μg/mL. The protocol:
2′,7′-Dichlorofluorescin diacetate (DCFH-DA) was used to examine the production of intracellular reactive oxygen species in SKOV-3 cells treated with artonin E. The SKOV-3 cells were seeded in the 96-well black plate and incubated overnight to attach. The cells were then treated with 8 μg/mL of artonin E for 24, 48, and 72 h. Hank’s balanced salt solution without serum was used to wash the cells. Then, 100 μL of DCFH-DA solution was added to each designated well, and the plate was incubated at 37°C for 30 min. The results were analyzed using a fluorescence microplate reader (Tecan Infinite M 200 PRO, Männedorf, Switzerland) at 485 nm excitation and 520 nm emission.

Data set [2] concerns SKOV-3 cells. The experiment in a line: Cell cycle analysis by flow cytometry. As to conditions: SKOV-3, 8 μg/mL, 72 h after treatment. Format: cell-based, human. The protocol:
SKOV-3 cells at a concentration of 5×10^5 cells were plated into a T75cm^2 flask and incubated overnight to allow attachment. The attached cells were treated with 8 μg/mL of artonin E at different time points. After treatment, the cells were trypsinized and centrifuged at 1,500 rpm for 10 min. The fresh pellets were washed twice with PBS, fixed with 500 μL of 70% cold ethanol, and incubated at −20°C overnight. The remaining ethanol was then removed and the cells were resuspended in PBS containing 20 μL of RNase A (10 μg/mL) and 2 μL of PI (2.5 μg/mL). The resulting mixture was incubated for 30 min at 37°C in the dark. Samples were immediately analyzed using FACS Canto 11 Becton-Dickinson flow cytometry. For each sample, 10,000 cells were measured. ModFit LT software (Verity Software House, Topsham, ME) was used to analyze the percentage of cells at different phases.

In data set [3] the target is arachidonate 5-lipoxygenase. Also noted: method as in PMID 14559276. The conditions noted are these: read-out: IC50 value, arachidonate 5-lipoxygenase inhibition; cited from earlier work.
In a further data set the test system is Bax. The experiment in a line: Western blot, Bax. Format: cell-based, human. The conditions noted are these: SKOV-3, 8 μg/mL, time-dependent. Here is the method:
SKOV-3 cells were plated in a 75cm^2 culture flask and exposed to artonin E for 24, 48, and 72 h. Lysis buffer (50 mM Tris–HCl, pH 8.0; 120 mM NaCl, 0.5% NP-40; and 1 mM PMSF) was used to extract the total protein. Protein concentration was determined using a BCA protein assay reagent kit (Bio-Rad, USA). Equal amounts of protein (40 μg) extract were subjected to SDS-PAGE and electroblotted onto a polyvinylidenedifluoride membrane (Bio-Rad). Blots were then blocked with 5% non-fat milk in TBS-Tween buffer 7 (0.12 M Tris-base, 1.5 M NaCl, and 0.1% Tween 20) for 1 h at room temperature. After incubating with the appropriate primary antibody overnight at 4°C, the blots were washed and then incubated with horseradish peroxidase conjugated secondary antibody for 1 h at room temperature. The protein bands were detected using pico or femto chemiluminescence (ECL system) and visualized using a UV gel documentation system. The subsequent primary antibodies, which include those for β-actin (1:10,000), Bax (1:10,000), Bcl-2 (1:10,000), HSP-70 (1:10,000), survivin (1:10,000),caspase -3 (1:10,000), caspase -8 (1:10,000), caspase -9 (1;10,000) and cytochrome c (1:200) were purchased from Abcam, Cambridge, United Kingdom.

The subject of data set [4] is SKOV-3 cells. Description: Multiparametric Cytotoxicity 3 high-content screening. Format: cell-based, human. As to conditions: SKOV-3, 8 μg/mL. The protocol: Cellomics Multiparameter Cytotoxicity 3 kit (Thermo Scientific^TM, Pittsburgh, PA, USA) was used to perform simultaneous detection of the crucial apoptotic events in SKOV-3 cells treated with artonin E. Briefly, SKOV-3 cells were seeded at a density of 5000 cells/well in a black flat-bottomed 96-well plates (PerkinElmer, Inc., Wellsley, MA, USA) and left overnight to attach. The attached cells were treated with 8 μg/mL artonin E for 24, 48, and 72 h. The treated cells were then exposed to 50 μL of live cell staining solution for 30 min. The excess medium and live cell staining solution were gently removed and the cells were then fixed with 16% paraformaldehyde. After fixation, the cells were exposed with permeabilization buffer followed by blocking buffer for 15 min at room temperature. Primary Cytochrome C antibodies and secondary DyLight 649 conjugated goat antimouse IgG were added and allowed to interact for 1 h each. Hoechst 33342 dye was used to stain nuclei in SKOV-3 cells. Stained SKOV-3 cells in the 96-well plates were analyzed using ArrayScan high-content screening (HCS) system. All experiments were conducted in triplicates and experiments were repeated twice.

pIC50: −log10 of the molar value.

Turning to `CC(C)=CCc1c(-c2cc(O)c(O)cc2O)oc2c3c(cc(O)c2c1=O)OC(C)(C)C=C3` [Artonin E, artonin E], in the data set with caspase-9, the “stimulation of caspase-9” value is “increased significantly”. Further, the “increase in the formation of ROS compared with untreated cells” value in the data set with SKOV-3 cells [1] (24 and 48 h after treatment) was “twofold”. Besides, in the data set with SKOV-3 cells [1] (72 h after treatment), the ROS induction result is recorded as “slightly decreased”. Also, in the data set with SKOV-3 cells [2], the “accumulation of cells arrested at the S phase” value was “significantly (p<0.05) increased”. The pIC50 in data set [3] is 6.44. Also, the “expression of Bax” value in the data set with Bax is listed as “upregulates”. For the same molecule, the “cytochrome c fluorescence intensities” value in the data set on SKOV-3 cells [4] (prolonged treatment periods) is “increase”. In addition, in the data set with SKOV-3 cells [4] (time-dependent (24, 48, 72 h)), the cell permeability entry is on record as “marked increased” and the “green fluorescence intensity of MMP” value was “significant (p<0.05) reduction”.
